The values that follow come from patent US20220023271A1, “COMPOSITION FOR PREVENTING OR TREATING CELLULAR SENESCENCE-RELATED DISEASES COMPRISING ZOTAROLIMUS AS ACTIVE INGREDIENT” (RESEARCH COOPERATION FOUNDATION OF YEUNGNAM UNIVERSITY, priority 2018, published 2022).

This data set has as its system renal fibrosis induced by renal ischemia-reperfusion injury. The data set can be described thus: Renal fibrosis induced by renal ischemia-reperfusion injury in mice. The class given is in vivo, C57BL/6J mice. How it is done:
Animal experiments were performed with the approval of the Animal Experimental Ethics Committee, Yeungnam University College of Medicine (YUMC-AEC2018-024). C57BL/6J 8-week-old male mice were anesthetized by intraperitoneal injection of 2.5% Avertin (0.025 ml/g body weight).
The anesthetized mice were placed on a hot plate at 37° C. and the left flank was incised to expose the left kidney. The renal arteriovenous blood vessels were ligated with a microaneurism clamp (Roboz), and whether the blood vessels were blocked or not was confirmed by the color of the kidneys. During the induction of ischemia, the body temperature of the mice was maintained at 36.5-37.5° C. After 35 minutes, the clamp was removed and it was confirmed that reperfusion occurred.
As a control, renal arteriovenous vessels were not ligated, and the rest was performed in the same manner as above. From 4 days after ischemia-reperfusion injury, 2.5 μl of 10 mM zotarolimus was diluted in 100 μl of phosphate buffer solution at intervals of 2 days and injected into the abdominal cavity 3 times (Zota group). […] Three mice were used for each group.
The left kidney in which ischemia-reperfusion injury was induced, was excised in half and fixed in 10% formalin solution or stored frozen in liquid nitrogen. […]
To confirm the degree of lipid peroxidation in tissues, malondialdehyde (MDA) was confirmed by the TBARS method (Garcia Y J, et al., Journal of neuroscience methods. 2005).
Briefly, 1.4 ml of TBARS solution [0.375% thiobarbituric acid (TBA), 15% trichloroacetic acid (TCA), 0.25 N HCl] was added to the tissue pulverization solution (0.3 mg protein/0.1 ml), and boiled for 15 minutes at 95-100° C. and centrifugation was performed at 4° C. and 12,000 rpm for 10 minutes, and the absorbance of the supernatant was confirmed at 540 nm.
Lipid hydroperoxides were identified by ferrous ion oxidation xylenol orange (FOX) method (Jiang Z Y, et al., Lipids. 1991).
0.9 ml of FOX reagent (100 μM xylenol orange, 25 mM H2SO4, 0.1 M sorbitol, 2.5 mM ferrous ammonium sulfate] was reacted at room temperature for 30 minutes and then centrifuged to measure the absorbance of the supernatant at 570 nm. […]
RIPA buffer was added to the tissue and pulverized with WiseTis homogenizer HG-15D (DAIHAN Scientific, Seoul, South Korea). Centrifugation was performed at 12,000 rpm at 4° C. for 20 minutes, and the supernatant was transferred to a new tube.
The protein concentration of the supernatant was quantified by the BCA method. After electrophoresis (SDS-PAGE) of 30 μg of protein, Western blot analysis was performed. After electrophoresis, the protein was transferred from the gel to a polyvinylidene fluoride membrane (Pall Corporation).
The membrane was treated with a 5% Difco™ skim milk solution (Becton, Dickinson and Company, USA) for 2 hours at room temperature, and the primary antibody was added, followed by reaction at room temperature for 2 hours. As the primary antibody, anti-p53 antibody, anti-p16 antibody, anti-actin antibody, and anti-GAPDH antibody were purchased from Santa Cruz Biotechnology, Inc. Anti-phosphorylated-Rb antibody was obtained from New England Biolabs (Ipswich, Mass., USA), and the anti-SOD2 antibody and anti-catalase antibody were obtained from Bioworld Technology Inc. (Louis Park, Minn., USA), anti-4-HNE antibody, anti-α-smooth muscle actin antibody, and anti-type I collagen antibody were purchased from Abcam (Cambridge, UK).
The membrane treated with the primary antibody was washed three times for 15 minutes each with TBST (20 mM Tris-HCl (pH 8.0), 137 mM NaCl, 0.1% Tween 20), and reacted for 60 minutes by treatment with the secondary antibody.
After washing for at least 60 minutes with TBST, protein expression was confirmed using an ECL detection kit (Elpis Biotech, Daejeon, South Korea).
The tissue fixed in 10% formalin solution was embedded with paraffin and cut into 4 μm to prepare a tissue sample. […]

The mark [1] stands for this setting: i.p. 3 times from day 4, vs PBS group.

SMILES strings stand for the structures.

Consider `CO[C@H]1C[C@@H]2CC[C@@H](C)[C@@](O)(O2)C(=O)C(=O)N2CCCC[C@H]2C(=O)O[C@H]([C@H](C)C[C@@H]2CC[C@H](n3cnnn3)[C@H](OC)C2)CC(=O)[C@H](C)/C=C(\C)[C@@H](O)[C@@H](OC)C(=O)[C@H](C)C[C@H](C)/C=C/C=C/C=C/1C` [zotarolimus], for which the weight gain result (body weight before injury vs 11th day, i.p. 3 times at 2-day intervals, vs Sham group) is “significantly reduced compared to that of the Sham group”. Further, under setting [1], the “plasma BUN” value is reported as “decreased” and the plasma creatinine entry is listed as “decreased”. Besides, under “kidney tissue”, the “expression of SOD2” value was “increased”, the expression of catalase entry is given as “increased” and the superoxide entry is “significantly reduced”. Under “kidney tissue specimen, vs PBS group”, the “damage to the kidney tubules” value is recorded as “significantly reduced”. Under “kidney tissue, vs PBS group”, the “degree of lipid oxidation (lipid hydroperoxides and MDA)” value is given as “significantly reduced”; the “degree of tissue fibrosis by trichrome staining” value is on record as “significantly reduced”; the “expression level of 4-HNE (Western blot)” value was “significantly reduced”; the “expression level of p16 (Western blot)” value is “significantly reduced”. Where the note is “kidney tissue, vs PBS group”, the “expression of p53 (Western blot)” value is listed as “significantly reduced”, the “expression of pRb (Western blot)” value was “significantly reduced”, the “expression of type 1 collagen (COL1) (Western blot)” value is listed as “significantly reduced” and the “expression of α-SMA (Western blot)” value is “significantly reduced”. Where the note is “kidney tissue, vs PBS group”, the “lipofuscin staining intensity (Sudan Black B)” value is “significantly reduced”.
